Measurements reported in patent US20260306421A1, “SYSTEMS AND METHODS FOR TRANSDERMAN PATCH DELIVERY” (VITAMAX PATCH WHOLESALER LLC, priority 2022, published 2026).

Legend:
[1] = Solubility of iron chloride hexahydrate and iron complexes (visual / assayed); format: physicochemical
Procedure: Due to the high number of test samples (6 complexes plus the starting material, iron chloride hexahydrate) a visual solubility screen was used to screen the solubility in a range of solvents. […] Quantitative determination was performed by either incubating the complex in excess in the solvent using a shaking 37° C. water bath for 48 h or sonicating it for 2 hours at 40° C. or leaving overnight on a 50° C. hot plate. Once incubation period was completed, the exact solubility in a particular solvent was assayed (using the iron assay) after centrifugation (i.e. assay iron content in the supernatant using the Ferrozine® assay).

[2] = Iron complex adhesive compatibility and loading screen; format: physicochemical
Procedure: Pre-formulation studies were performed to determine the compatibility of the iron complexes with a range of transdermal patch adhesives (Table 15).
The compatibility of the complexes with the patch adhesives was assessed by mixing and visually checking the clarity of the mixture.
In the adhesives that were computable with the iron complexes the maximum drug loading of the complexes in the adhesive following solvent evaporation was determined. This was achieved by mixing the drug, adhesive and co-solvents until a clear solution was obtained at different drug:adhesive ratios and placing few drops of the mixture onto the patch backing sheet, leaving it to dry for 3-4 h, and examining the formed film on the surface of the backings for evidence of drug crystals.
Following complete drying of the solvents, the adhesive layer was covered by a release liner, compressed, and then cut using 34 mm circular manual die cutter (FIG. 23).

[3] = Franz cell porcine skin permeation and deposition of iron from solutions; format: in vitro ADME
Procedure: The permeation of the iron complexes from the formulations into and across porcine skin mounted on Franz cells with a receiver fluid was tested (FIG. 4). This was based on the principles of the FDA, SUPAC-SS guidelines. The developed colorimetric assay method was used for iron quantification.
On the day of the experiment, the skin was defrosted. For the full thickness studies, the subcutaneous fat removed (2.5 mm thick) and for the dermatomes skin studies the tissued was dermatomed to a 1 mm thickness. The tissue was cut into the appropriate size sections (2.19±0.21 cm^2) and mounted between donor and receiver compartments of Franz diffusion cells with the SC facing the donor compartment. Each cell was sealed using parafilm and 12 mm magnetic stir bars were placed into the receiver compartment. The receiver compartment was filled with the desired receiver solution and the Franz cells were placed in a stirring water bath at 37° C. Cells were allowed to equilibrate for 30 min after which the receiver fluid using was mixed using a syringe and the “zero hour” sample was withdrawn from the arm and compensate with the same volume of fresh pre-warmed solution. Following zero-hour sampling, the donor solution was placed in the donor compartment and covered with parafilm. Samples were withdrawn and compensated with fresh receiver solution at set time intervals for a 24 h duration. The iron in each sample was quantified using the method specified in Section 2.2.2.1. […] There was no matrix interference noted in the assay. […] For iron maltol a 80:20 PG:water receiver was used along with a complementary calibration for iron assay (iron chloride in PG:water). The donor solution for the iron maltol made at pH 1.6 was 200 μL of 100 mg/mL complex in Transcutul®, for iron maltol made at pH 4 the donor solution was 200 μL of 23 mg/mL complex in PG and for iron maltol made at pH 4 the donor solution was 150 μL of 16 mg/mL complex in 7.5:1.5:1:1 water:PG:dimethicone:ethanol.
Once the permeation studies were completed the donor solutions were collected into bottles containing the extraction solution. This was followed by skin surface cleaning using four cotton buds, the first two were wetted by the extraction fluid and the second two were used dry. Then two tape striping procedures were performed using 2 tapes to remove any iron on the skin surface with the tape being added to the donor solution and cotton buds in the donor recover vial. For the full skin thickness skin, the Stratum corneum, the dermal and the epidermal layers were isolated in the same way as the recovery method (Section 2.3.2.1). Extraction fluid (50:50 PBS:ethanol) was then added to the tissues, 4 mL to the Stratum corneum, and 2 mL for each of the epidermis and dermis. For the dermatomed skin the whole skin section was chopped up and placed in a 2 mL extraction fluid (ethanol).
The Stratum corneum samples were placed on vibrating plate for a minimum of 2 h to extract the iron and then vortexed prior assay. The epidermis, dermis or dermatomed samples however were incubated with the extraction fluid for 1 h after which were transferred to Eppendorf tubes, one stainless steel 5 mm bead was added and the samples were loaded into the TissuLyser II (Qiagen, Germany) for 30-15 min at 30 Hz. The samples were then centrifuged (5 min at 13,000 rpm) and supernatant assayed.

[4] = donor liquid paraffin:ethanol, 24 h

Compound: CCc1occc(=O)c1[O-].CCc1occc(=O)c1[O-].CCc1occc(=O)c1[O-].[Fe+3] [Iron ethyl maltol made at pH 4, iron ethyl maltol]
- Solubility of complex ([1]; PEG400): 15 mg/mL Iron
- Solubility, equivalent elemental iron ([1]; PEG400): (1.8 mg/mL
- Solubility of complex ([1]; PG): 8.3 mg/mL Iron
- Solubility, equivalent elemental iron ([1]; PG): 1 mg/ml mg/mL

Compound: CCc1occc(=O)c1[O-].CCc1occc(=O)c1[O-].CCc1occc(=O)c1[O-].[Fe+3] [Iron ethyl maltol made at pH 7.4, iron ethyl maltol]
- Solubility of complex (visual) ([1]; PEG400, visual (*)): <8 mg/mL Iron
- Solubility of complex ([1]; PG): 2.7 mg/mL Iron
- Solubility, equivalent elemental iron ([1]; PG): 320 µg/mL
- Solubility of complex ([1]; Saline): 360 μg/mL Iron
- Solubility, elemental iron ([1]; Saline): (44 μg/mL
- Solubility in DURO-TAK 9301 patch ([2]; drug loading 2.5-10%, no permeation enhancer): Precipitated
- Solubility in DURO-TAK 9301 patch ([2]; drug loading 4%, 2 mg PEG400): Clear
- Solubility in DURO-TAK 9301 patch ([2]; drug loading 4%, 2 mg PG): Clear
- Solubility in DURO-TAK 9301 patch ([2]; drug loading 4%, no permeation enhancer): Clear
- Solubility in DURO-TAK 9301 patch ([2]; drug loading 5%, 2.5 mg Transcutol): Precipitated
- Solubility in DURO-TAK 9301 patch ([2]; drug loading 5%, 2.6 mg PEG400): Precipitated
- Solubility in DURO-TAK 9301 patch ([2]; drug loading 5%, 5 mg PEG400): Precipitated
- Solubility in DURO-TAK 9301 patch ([2]; drug loading 5%, 5 mg Transcutol): Clear
- Solubility in DURO-TAK 9301 patch ([2]; drug loading 6%, 3.3 mg PEG400): Precipitated
- Solubility in DURO-TAK 9301 patch ([2]; drug loading 7.5%, 4 mg Transcutol): Precipitated
- Solubility in DURO-TAK 9301 patch ([2]; drug loading 7.5-10%, 4-5.5 mg PG): Precipitated
- Solubility in DURO-TAK 9301 patch ([2]; drug loading 10-7.5%, 5.5-4 mg PEG400): Precipitated

Compound: CCC(=O)[O-].CCC(=O)[O-].CCC(=O)[O-].[Fe+3] [Iron propionate made at pH 4, iron propionate]
- iron passing through the skin ([3]; applied as solution): neither the patch nor the solution allowed iron to pass through the skin
- deposition into the skin ([3]; applied to the skin as a PG solution): 8 μg/cm^2
- permeation and deposition in the skin ([3]; solutions, 24 h): permeated and deposited in the skin

Compound: iron oleate
- deposition, all layers combined ([3]; donor Miglyol, 24 h): 3.7 μg/cm^2
- elemental iron permeated the skin ([3]; donor Miglyol, 24 h): 2.5±1.8 μg/cm^2
- deposition, all layers combined [3, 4]: 5.3 μg/cm^2
- elemental iron permeated the skin [3, 4]: 4.4±1.5 μg/cm^2
